Experiments:
progestin receptor (rPR) = target: T1, progestin receptor (rPR) (Oryctolagus cuniculus, UniProt P06186); assay: Receptor binding (rabbit), progestin receptor; settings: for Ratio PR/GR: ratio of rPR to rGR relative affinities; for Relative Binding Affinity, rPR, Relative Affinity (Progesterone): relative to progesterone = 100, rabbit progestin receptor
T1 construct: hormone receptors for progestins and glucocorticoids from rabbits; from tissue; host or cells: rabbit
T1 sequence (P06186 1-930): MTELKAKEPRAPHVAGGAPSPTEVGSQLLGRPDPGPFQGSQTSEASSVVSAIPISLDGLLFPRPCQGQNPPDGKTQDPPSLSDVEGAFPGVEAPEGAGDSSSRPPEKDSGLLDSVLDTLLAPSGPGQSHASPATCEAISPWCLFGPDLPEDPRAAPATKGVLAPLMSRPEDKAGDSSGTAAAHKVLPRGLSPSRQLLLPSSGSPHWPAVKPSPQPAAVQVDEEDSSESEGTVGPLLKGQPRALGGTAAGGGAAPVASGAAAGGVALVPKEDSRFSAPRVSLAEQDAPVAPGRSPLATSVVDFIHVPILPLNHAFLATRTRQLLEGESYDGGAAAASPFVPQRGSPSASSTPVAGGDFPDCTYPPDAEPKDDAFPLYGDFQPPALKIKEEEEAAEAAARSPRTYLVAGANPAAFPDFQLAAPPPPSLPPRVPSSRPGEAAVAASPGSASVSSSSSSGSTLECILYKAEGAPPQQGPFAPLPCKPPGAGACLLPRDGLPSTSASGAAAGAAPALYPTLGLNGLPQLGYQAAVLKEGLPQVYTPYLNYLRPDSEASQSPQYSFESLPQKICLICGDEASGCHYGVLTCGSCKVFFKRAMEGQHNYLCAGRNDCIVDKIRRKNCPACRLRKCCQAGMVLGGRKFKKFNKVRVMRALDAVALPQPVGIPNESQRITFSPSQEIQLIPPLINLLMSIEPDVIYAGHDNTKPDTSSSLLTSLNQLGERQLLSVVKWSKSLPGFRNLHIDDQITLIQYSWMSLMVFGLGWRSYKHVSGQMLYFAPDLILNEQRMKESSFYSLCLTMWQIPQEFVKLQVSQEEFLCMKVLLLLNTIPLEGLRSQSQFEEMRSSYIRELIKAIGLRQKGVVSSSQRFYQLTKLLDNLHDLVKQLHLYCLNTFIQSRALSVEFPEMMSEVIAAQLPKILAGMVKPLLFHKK

[1] = target: T2, glucocorticoid receptor (rGR) (Oryctolagus cuniculus, UniProt P59667); assay: Receptor binding (rabbit), glucocorticoid receptor; settings: relative to dexamethasone = 100
T2 construct: the source of the glucocorticoid receptor was the thymus of the estrogen-primed immature female rabbit; from tissue; host or cells: thymus of the estrogen-primed immature female rabbit
T2 sequence (P59667 1-772): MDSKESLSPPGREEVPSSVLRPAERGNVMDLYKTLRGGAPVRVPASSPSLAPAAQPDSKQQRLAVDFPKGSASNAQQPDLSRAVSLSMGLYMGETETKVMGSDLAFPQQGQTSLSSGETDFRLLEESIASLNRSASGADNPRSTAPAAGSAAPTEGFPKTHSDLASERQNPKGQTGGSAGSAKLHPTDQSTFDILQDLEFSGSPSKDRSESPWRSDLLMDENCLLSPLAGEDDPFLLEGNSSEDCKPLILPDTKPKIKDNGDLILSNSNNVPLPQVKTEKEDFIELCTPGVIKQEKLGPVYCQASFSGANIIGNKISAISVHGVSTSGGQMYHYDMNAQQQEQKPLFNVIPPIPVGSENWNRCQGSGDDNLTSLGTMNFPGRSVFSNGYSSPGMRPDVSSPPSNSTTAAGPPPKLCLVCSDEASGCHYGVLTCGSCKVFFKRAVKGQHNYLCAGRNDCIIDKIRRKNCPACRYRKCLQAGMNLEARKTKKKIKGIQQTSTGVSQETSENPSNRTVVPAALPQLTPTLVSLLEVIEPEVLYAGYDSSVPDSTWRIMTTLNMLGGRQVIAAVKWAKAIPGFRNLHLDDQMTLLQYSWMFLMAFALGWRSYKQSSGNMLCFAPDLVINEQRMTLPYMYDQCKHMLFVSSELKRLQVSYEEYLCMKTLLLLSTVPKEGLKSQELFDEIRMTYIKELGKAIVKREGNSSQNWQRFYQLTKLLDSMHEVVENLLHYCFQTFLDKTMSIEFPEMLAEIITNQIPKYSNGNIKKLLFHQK
Protocol: (§1) The affinity of the compounds for hormone receptors for progestins and glucocorticoids from rabbits was determined by standard procedures similar to those that have been described in C. E. Cook, et al., Human Reproduction, Volume 9, supplement 1, pp. 32-39 (1994). However, the source of the glucocorticoid receptor was the thymus of the estrogen-primed immature female rabbit. The affinity of the compounds for the human progesterone hormone receptor was determined by standard procedures similar to those that have been described in Horwitz, et al., Cell, 28: 633-42 (1982) and Mockus, et al., Endocrinology, 110: 1564-71 (1982). The receptor was obtained in cytosol from human T-47D breast cells and [^3 H]-R5020 was used as the radioligand. T47D cells (1 billion/mL) were homogenized in TEDG buffer (10 mM Tris, 1.5 mM EDTA, 1 mM dithiothreitol, 1 mM sodium molybdate, and 10% glycerol) using a Dounce pestle A, and the homogenate was centrifuged at 34,000×g for 1 hour. The supernatant was stored at -80° C. An aliquot of receptor preparation was combined with test compound, 0.4 nM [^3 H]-R5020, and TEDG buffer to a final volume of 150 ,μL and incubated for 4 hours at 4° C. in microtiter plates. At the end of incubation 40 μL 40% polyethylene glycol and 15 μL 1% human gamma globulin was added to the incubate and the contents of each well were harvested onto double thick B filter mats (Wallac LKB) using a TomTec harvester. A film of Meltilux scintillant wax was applied to the dried filter mats and the mats were counted in a scintillation counter to determine inhibition of [^3 H]-R5020 binding. Data are expressed as lC50 values, i.e., the concentration of compound that inhibits radioligand binding by 50%.

[2] = system: estrogen-primed immature female rabbits; assay: Anti-Clauberg assay (oral test compound with subcutaneous progesterone); type: in vivo, rabbit; settings: given orally together with subcutaneous progesterone; McPhail Index
[3] = target: T3, human progesterone hormone receptor (hPR) (Homo sapiens, UniProt P06401); assay: Receptor binding (human), inhibition of [^3 H]-R5020 binding; settings: cytosol from human T-47D cells; 0.4 nM [^3 H]-R5020; 4 hours at 4° C.
T3 construct: The receptor was obtained in cytosol from human T-47D breast cells; endogenous in cells; host or cells: T-47D human breast cells (cytosol)
T3 sequence (P06401 1-933): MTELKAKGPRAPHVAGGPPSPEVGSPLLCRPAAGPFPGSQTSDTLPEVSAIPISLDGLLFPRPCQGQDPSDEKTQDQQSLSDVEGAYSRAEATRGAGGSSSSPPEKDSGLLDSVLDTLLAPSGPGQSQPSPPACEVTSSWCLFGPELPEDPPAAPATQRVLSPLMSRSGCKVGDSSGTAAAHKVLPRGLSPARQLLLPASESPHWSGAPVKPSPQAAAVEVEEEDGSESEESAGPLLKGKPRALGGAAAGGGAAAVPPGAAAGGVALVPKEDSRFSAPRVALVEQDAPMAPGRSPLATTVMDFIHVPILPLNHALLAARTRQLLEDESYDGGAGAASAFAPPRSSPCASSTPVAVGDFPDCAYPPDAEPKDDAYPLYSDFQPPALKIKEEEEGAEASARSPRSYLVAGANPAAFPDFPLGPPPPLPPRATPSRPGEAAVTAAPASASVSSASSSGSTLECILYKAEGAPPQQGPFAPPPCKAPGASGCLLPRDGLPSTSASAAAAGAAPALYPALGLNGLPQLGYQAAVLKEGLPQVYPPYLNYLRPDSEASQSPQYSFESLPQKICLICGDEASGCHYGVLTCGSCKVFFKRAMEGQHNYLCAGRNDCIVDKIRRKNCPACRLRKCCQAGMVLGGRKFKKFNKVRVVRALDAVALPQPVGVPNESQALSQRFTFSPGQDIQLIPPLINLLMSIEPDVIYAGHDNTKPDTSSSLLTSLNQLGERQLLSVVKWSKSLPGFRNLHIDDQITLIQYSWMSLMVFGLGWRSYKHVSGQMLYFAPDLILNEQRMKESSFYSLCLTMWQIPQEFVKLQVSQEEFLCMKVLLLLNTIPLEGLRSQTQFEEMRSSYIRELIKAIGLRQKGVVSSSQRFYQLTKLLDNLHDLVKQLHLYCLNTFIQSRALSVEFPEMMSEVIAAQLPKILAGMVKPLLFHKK
Protocol: as §1

rabbits [4] = assay: McGinty assay (progestational activity, test compound alone); type: in vivo, rabbit; set-up: key: McPhail scoring scale for progestational endometrial response
Protocol: (§2) Progestational activity and antiprogestational activity were determined in rabbits by means of the McGinty test (test compound alone, procedure of McGinty et al., Endocrinology, 24: 829-832 (1939)) or anti-McGinty test (test compound plus progesterone, procedure of Tamara et al., Jpn. J. Fertil Steril 24: 48-81 (1979)). Results were scored according to McPhail (McPhail, J Physiol., 83: 146 (1934)). These are standard procedures known to those skilled in the art. The results of these assays are shown in Tables 4 (agonist activity) and 5 (antagonist activity). […] Physiol, 83: 146 (1934)).

rabbits [5] = assay: Anti-McGinty assay (antiprogestational activity, test compound plus progesterone); type: in vivo, rabbit; set-up: key to McPhail Index, Anti-McGinty Assay, Standard / McPhail Index, Anti-McGinty Assay (Antagonist): McPhail scoring scale for progestational endometrial response; settings: for McPhail Index, Anti-McGinty Assay (Antagonist): plus progesterone
Protocol: as §2

glucocorticoid receptor = settings: in words; cited from earlier work

Row | Structure (SMILES) | Ratio PR/GR (progestin receptor (rPR)) | Relative Binding Affinity, rPR, Relative Affinity (Progesterone) (progestin receptor (rPR)) | Relative Binding Affinity, rGR, Relative Affinity (Dexamethasone) [1] | further results
1 | CC#C[C@]1([N+](=O)[O-])CC[C@H]2[C@@H]3CCC4=CC(=O)CCC4=C3[C@@H](c3ccc(N(C)C)cc3)C[C@@]21C [I 4-Me2 N H O H --CC--CH3, 11β-[4-(N,N-Dimethylamino)phenyl]-17β-nitro-17α-(1-propynyl)estra-4,9-dien-3-one] | 1.5 | 55 | 36 | antiprogestational activity in the anti-Clauberg assay [2]: potent antiprogestin
2 | CN(C)c1ccc([C@H]2C[C@@]3(C)[C@@H](CC[C@]3(/C=C/CO)[N+](=O)[O-])[C@@H]3CCC4=CC(=O)CCC4=C32)cc1 [I 4-Me2 N H O H CH=CHCH2 OH, 11β-[4-(N,N-Dimethylamino)phenyl]-17α-[(E)-1-(3-hydroxy)propenyl]-17β-nitroestra-4,9-dien-3-one] | 3.5 | 56 | 16 | 
3 | CSc1ccc([C@H]2C[C@@]3(C)[C@@H](CC[C@]3(CCCO)[N+](=O)[O-])[C@@H]3CCC4=CC(=O)CCC4=C32)cc1 [I 4-MeS H O H --(CH2)3 OH, 17α-(3-Hydroxypropyl)-11β-[4-(methylthio)phenyl]-17β-nitroestra-4,9-dien-3-one] | 20.3 | 61 | 3 | 
4 | CSc1ccc([C@H]2C[C@@]3(C)[C@@H](CC[C@]3(C=CCO)[N+](=O)[O-])[C@@H]3CCC4=CC(=O)CCC4=C32)cc1 [I 4-MeS H O H CH=CHCH2 OH] |  | 32 |  | 
5 | C[S+]([O-])c1ccc([C@H]2C[C@@]3(C)[C@@H](CC[C@]3(CCCO)[N+](=O)[O-])[C@@H]3CCC4=CC(=O)CCC4=C32)cc1 (stereo partly drawn) [I 4-MeS(O) H O H --(CH2)3 OH, 17α-(3-Hydroxypropyl)-11β-[4-(methylsulfinyl)phenyl]-17β-nitroestra-4,9-dien-3-one] | > 10 | 23 | < 2 | 
6 | CC(=O)c1ccc(C2CC3(C)C(CCC34CCC(C)=[N+]4[O-])C3CCC4=CC(=O)CCC4=C23)cc1 (stereo not drawn) [II 4-CH3 CO H O H -- CH3, 11β-(4-Acetylphenyl)-3',4'-dihydro-5'-methyl-1'-oxo-spiro[estra-4,9-dien-17β,2'(2'H)-pyrrole]-3-one] |  | 21 |  | 
7 | CN(C)c1ccc([C@H]2C[C@@]3(C)[C@@H](CC[C@@]34CCC=[N+]4[O-])[C@@H]3CCC4=CC(=O)CCC4=C32)cc1 [II 4-Me2 N H O H -- H, 11β-[4-(N,N-Dimethylamino)phenyl]-3',4'-dihydro-1'-oxo-spiro[estra-4,9-dien-17β,2'(2'H)-pyrrole]-3-one] |  |  |  | IC50 [3]: 18 nM; McPhail Index, McGinty Assay (Agonist) (rabbits [4]; dose 0.3 micrograms): 0 ± 0; McPhail Index, McGinty Assay (Agonist) (rabbits [4]; dose 3 micrograms): 0 ± 0; McPhail Index, McGinty Assay (Agonist) (rabbits [4]; dose 30 micrograms): 0 ± 0; McPhail Index, Anti-McGinty Assay (Antagonist) (rabbits [5]; dose 0.3 micrograms): 2.0 ± 0.11; McPhail Index, Anti-McGinty Assay (Antagonist) (rabbits [5]; dose 3 micrograms): 1.83 ± 0.2; McPhail Index, Anti-McGinty Assay (Antagonist) (rabbits [5]; dose 30 micrograms): 0.23 ± 0.23
8 | CC(=O)[C@H]1CC[C@H]2[C@@H]3CCC4=CC(=O)CC[C@]4(C)[C@H]3CC[C@]12C [Progesterone, reference compound] |  |  |  | McPhail Index, McGinty Assay, Standard (rabbits [4]; standard, dose not given): 2.45 ± 0.14; McPhail Index, Anti-McGinty Assay, Standard (rabbits [5]; standard, dose not given): 2.45 ± 0.14
9 | CC#C[C@]1(O)CC[C@H]2[C@@H]3CCC4=CC(=O)CCC4=C3[C@@H](c3ccc(N(C)C)cc3)C[C@@]21C [mifepristone] |  |  |  | glucocorticoid or antiglucocorticoid activity as side-effect (glucocorticoid receptor): significant side-effect

From patent publication US6015805A, “17β-nitro-11β-arylisteroids and their derivatives having agonist or antagonist hormonal properties” (Research Triangle Research North Carolina, priority 1999, dated 2000)
